Test results taken from ChEMBL document CHEMBL5727585, “Carboxylic acid URAT1 inhibitor containing diarylmethane structure, preparation method and use thereof” (2020).

Molecular target: T1, Solute carrier family 22 member 12 (Homo sapiens, UniProt Q96S37)
T1 sequence (Q96S37 whole entry): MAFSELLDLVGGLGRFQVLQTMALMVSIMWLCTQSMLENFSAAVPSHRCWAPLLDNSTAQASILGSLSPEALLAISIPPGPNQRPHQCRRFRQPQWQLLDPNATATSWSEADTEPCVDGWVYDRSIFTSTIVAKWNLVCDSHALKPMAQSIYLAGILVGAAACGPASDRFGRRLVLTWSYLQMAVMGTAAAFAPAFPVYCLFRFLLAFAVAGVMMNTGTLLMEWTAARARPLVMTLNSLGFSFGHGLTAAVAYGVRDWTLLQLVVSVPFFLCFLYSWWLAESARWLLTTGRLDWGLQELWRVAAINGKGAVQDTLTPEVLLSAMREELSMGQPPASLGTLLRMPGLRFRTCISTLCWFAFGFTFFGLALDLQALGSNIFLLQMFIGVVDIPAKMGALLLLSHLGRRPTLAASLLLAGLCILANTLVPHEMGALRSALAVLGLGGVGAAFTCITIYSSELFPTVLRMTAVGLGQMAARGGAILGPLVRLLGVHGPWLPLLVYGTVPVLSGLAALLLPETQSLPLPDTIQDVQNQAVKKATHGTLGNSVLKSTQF
Assay: IC50 for Inhibition of the Test Compounds on URAT1: After trypsin digestion, the expression cells (HEK293) stably expressing URAT1 gene and mock cells were all inoculated into lysine-coated 24-well culture plates, with the cell inoculation density being 1×10^5 cells/well, and cultured in incubator at 37° C., 5% CO2 and saturated humidity for 2 days. The culture fluid in the culture plate was removed, and the cultured cells were washed twice with DPBS and subjected to warm bath in DPBS buffer solution at 37° C. for 10 min, and then a solution (500 μL) containing radioactive labeled probe substrate ([8-14C] uric acid) and 10 μM test compound (or blank) was used to substitute for DPBS, with the concentration of [8-14C] uric acid being 30 μM and the radiation intensity per well being 0.867 μCi. After 2 min, the reaction was terminated with ice-bathed DPBS buffer solution and washing was carried out for three times. Then 0.1 mol/L NaOH (500 μL) was added into each well to lyse the cells, the lysate was extracted into a scintillation vial and a scintillation fluid (Aquasol-2, 3 mL) was added, and the intensity of radioactivity in the sample was measured using a Tri-Carb 2910TR liquid scintillation analyzer (PerkinElmer, Waltham, USA). […] […]

Structure (SMILES)	IC50
O=C(O)CCc1nnc(Br)n1-c1ccc(C2CC2)c2ccccc12	1.81 µM
CC(C)(Sc1nnc(Br)n1-c1ccc(C2CC2)c2ccccc12)C(=O)O	2.13 µM
